Experimental data taken from patent US11897851B2, “Heterocyclic GLP-1 agonists” (Gasherbrum Bio, Inc., priority 2021, dated 2024).

Each compound was assayed against T1, GLP-1 Receptor (Homo sapiens, UniProt P43220) (assay: GLP-1R agonist cAMP stimulation assay (HEK293/GLP1R/CRE-LUC cells, Cisbio cAMP dynamic 2 kit)). Conditions: HEK293/CRE-Luc cell line stably expressing the GLP-1 Receptor; 1000 cells/well; 30 min at 37° C.; 0.5 mM IBMX, 0.1% BSA; read-out: GLP1R cAMP Stimulation DR: EC50.
T1 construct: host or cells: HEK293/GLP1R/CRE-LUC (HEK293/CRE-Luc stably expressing the GLP-1 receptor)
T1 sequence (P43220 24-463, species assumed): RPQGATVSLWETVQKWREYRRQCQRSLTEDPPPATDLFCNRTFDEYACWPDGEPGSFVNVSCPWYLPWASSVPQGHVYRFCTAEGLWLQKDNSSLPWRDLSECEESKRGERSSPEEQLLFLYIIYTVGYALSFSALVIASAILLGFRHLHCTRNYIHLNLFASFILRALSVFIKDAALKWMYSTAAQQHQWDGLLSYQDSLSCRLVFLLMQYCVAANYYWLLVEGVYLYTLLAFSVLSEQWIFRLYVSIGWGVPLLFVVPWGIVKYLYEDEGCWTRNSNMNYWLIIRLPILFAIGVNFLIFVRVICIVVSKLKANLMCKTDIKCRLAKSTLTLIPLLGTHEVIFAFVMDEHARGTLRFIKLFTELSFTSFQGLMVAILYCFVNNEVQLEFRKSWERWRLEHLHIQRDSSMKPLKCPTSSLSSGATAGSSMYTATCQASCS
Format: cell-based
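Note: compounds tested in half-log serial dilution, cAMP detected with cAMP-d2 and anti-cAMP cryptate antibody reagents after 1 h at room temperature.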

Structure (SMILES)	EC50
O=C(O)/C=C/c1cnc(CN2CCC(c3cccc4c3OC[C@@H](c3ccc(Cl)cc3)O4)CC2)n1C[C@@H]1CCO1 [Compound 116a, (E)-3-(2-((4-((R)-2-(4-Chlorophenyl)-2,3-dihydrobenzo[b][1,4]dioxin-5-yl)piperidin-1-yl)methyl)-1-(((S)-oxetan-2-yl)methyl)-1H-imidazol-5-yl)acrylic acid]	0.71 nM
Cc1cc(C(=O)O)cnc1CN1CCC(c2cccc(OCc3ccc(Cl)cc3F)n2)CC1 [Compound 129, 6-((4-(6-((4-chloro-2-fluorobenzyl)oxy)pyridin-2-yl)piperidin-1-yl)methyl)-5-methylnicotinic acid]	1500 nM
O=C(O)CCc1ccc(CN2CCC(c3cccc(OCc4ccc(Cl)cc4F)n3)CC2)nc1 [Compound 118, 3-(6-((4-(6-((4-chloro-2-fluorobenzyl)oxy)pyridin-2-yl)piperidin-1-yl)methyl)pyridin-3-yl)propanoic acid]	> 1000 nM
CC1(c2ccc(Cl)cc2F)Oc2cccc(C3CCN(Cc4ncc(/C=C/C(=O)O)n4C[C@H]4CCOC4)CC3)c2O1 (stereo partly drawn) [Compound 154, (E)-3-(2-((4-(2-(4-chloro-2-fluorophenyl)-2-methylbenzo[d][1,3]dioxol-4-yl)piperidin-1-yl)methyl)-1-(((R)-tetrahydrofuran-3-yl)methyl)-1H-imidazol-5-yl)acrylic acid]	0.012 nM
C/C(=C\c1cnc(CN2CCC(c3cccc4c3O[C@](C)(c3ccc(Cl)cc3F)O4)CC2)n1C[C@@H]1CCO1)C(=O)O (single isomer, unassigned) [Compound 131b]	8.7 nM
C/C(=C\c1cnc(CN2CCC(c3cccc4c3OC[C@@H](c3ccc(Cl)cc3)O4)CC2)n1C[C@@H]1CCO1)C(=O)O [Compound 115a, (E)-3-(2-((4-((R)-2-(4-chlorophenyl)-2,3-dihydrobenzo[b][1,4]dioxin-5-yl)piperidin-1-yl)methyl)-1-(((S)-oxetan-2-yl)methyl)-1H-imidazol-5-yl)-2-methylacrylic acid]	3.2 nM
COCCn1c(/C=C/C(=O)O)cnc1CN1CCC(c2cccc3c2OC(C)(c2ccc(Cl)cc2F)O3)CC1 (stereo not drawn) [Compound 141, (E)-3-(2-((4-(2-(4-chloro-2-fluorophenyl)-2-methylbenzo[d][1,3]dioxol-4-yl)piperidin-1-yl)methyl)-1-(2-methoxyethyl)-1H-imidazol-5-yl)acrylic acid]	0.012 nM
Cn1c(-c2nn[nH]n2)cnc1CN1CCC(c2cccc(OCc3ccc(Cl)cc3F)n2)CC1 [Compound 105, 2-((4-chloro-2-fluorobenzyl)oxy)-6-(1-((1-methyl-5-(2H-tetrazol-5-yl)-1H-imidazol-2-yl)methyl)piperidin-4-yl)pyridine]	59.2 nM
COC(C)Cn1c(/C=C/C(=O)O)cnc1CN1CCC(c2cccc3c2OC(C)(c2ccc(Cl)cc2F)O3)CC1 (stereo not drawn) [Compound 159, (E)-3-(2-((4-(2-(4-chloro-2-fluorophenyl)-2-methylbenzo[d][1,3]dioxol-4-yl)piperidin-1-yl)methyl)-1-(2-methoxypropyl)-1H-imidazol-5-yl)acrylic acid]	0.051 nM

Further lines, results first:

EC50	Structure (SMILES)
0.014 nM	CC1(c2ccc(Cl)cc2F)Oc2cccc(C3CCN(Cc4ncc(/C=C/C(=O)O)n4CC4CCS4(=O)=O)CC3)c2O1 (stereo not drawn) [Compound 165, (E)-3-(2-((4-(2-(4-chloro-2-fluorophenyl)-2-methylbenzo[d][1,3]dioxol-4-yl)piperidin-1-yl)methyl)-1-((1,1-dioxidothietan-2-yl)methyl)-1H-imidazol-5-yl)acrylic acid]
0.63 nM	CC1(c2ccc(Cl)cc2F)Oc2cccc(C3CCN(Cc4ncc(CCC(=O)O)n4Cc4ccccc4)CC3)c2O1 (stereo not drawn) [Compound 242, 3-(1-benzyl-2-((4-(2-(4-chloro-2-fluorophenyl)-2-methylbenzo[d][1,3]dioxol-4-yl)piperidin-1-yl)methyl)-1H-imidazol-5-yl)propanoic acid]
0.019 nM	CCOCCn1c(/C=C/C(=O)O)cnc1CN1CCC(c2cccc3c2OC(C)(c2ccc(Cl)cc2F)O3)CC1 (stereo not drawn) [Compound 197, (E)-3-(2-((4-(2-(4-chloro-2-fluorophenyl)-2-methylbenzo[d][1,3]dioxol-4-yl)piperidin-1-yl)methyl)-1-(2-ethoxyethyl)-1H-imidazol-5-yl)acrylic acid]
1.2 nM	O=C(O)/C=C/c1nnc(CN2CCC(c3cccc(OCc4ccc(Cl)cc4F)n3)CC2)n1CC1CCOC1 (stereo not drawn) [Compound 232, (E)-3-(5-((4-(6-((4-chloro-2-fluorobenzyl)oxy)pyridin-2-yl)piperidin-1-yl)methyl)-4-((tetrahydrofuran-3-yl)methyl)-4H-1,2,4-triazol-3-yl)acrylic acid]
0.33 nM	CC1(c2ccc(Cl)cc2F)Oc2cccc(C3CCN(Cc4ncc(/C=C/C(=O)O)n4CCC4CC4)CC3)c2O1 (stereo not drawn) [Compound 191, (E)-3-(2-((4-(2-(4-chloro-2-fluorophenyl)-2-methylbenzo[d][1,3]dioxol-4-yl)piperidin-1-yl)methyl)-1-(2-cyclopropylethyl)-1H-imidazol-5-yl)acrylic acid]
0.26 nM	Cc1ncc(Cn2c(/C=C/C(=O)O)cnc2CN2CCC(c3cccc4c3OC(C)(c3ccc(Cl)cc3F)O4)CC2)o1 (stereo not drawn) [Compound 202, (E)-3-(2-((4-(2-(4-chloro-2-fluorophenyl)-2-methylbenzo[d][1,3]dioxol-4-yl)piperidin-1-yl)methyl)-1-((2-methyloxazol-5-yl)methyl)-1H-imidazol-5-yl)acrylic acid]
5.3 nM	COCCc1cc(-c2nnc(C(F)(F)F)[nH]2)cnc1CN1CCC(c2cccc3c2OC(C)(c2ccc(Cl)cc2)O3)CC1 (stereo not drawn) [Compound 261, 2-({4-[2-(4-chlorophenyl)-2-methyl-2H-1,3-benzodioxol-4-yl]piperidin-1-yl}methyl)-3-(2-methoxyethyl)-5-[5-(trifluoromethyl)-4H-1,2,4-triazol-3-yl]pyridine]
0.19 nM	Cn1cncc1Cn1c(/C=C/C(=O)O)cnc1CN1CCC(c2cccc3c2OC[C@@H](c2ccc(Cl)cc2)O3)CC1 [Compound 206a, (R,E)-3-(2-((4-(2-(4-chlorophenyl)-2,3-dihydrobenzo[b][1,4]dioxin-5-yl)piperidin-1-yl)methyl)-1-((1-methyl-1H-imidazol-5-yl)methyl)-1H-imidazol-5-yl)acrylic acid]
1.6 nM	Cn1c(-c2cc(=O)[nH]o2)cnc1CN1CCC(c2cccc(OCc3ccc(Cl)cc3F)n2)CC1 [Compound 250, 5-(2-((4-(6-((4-chloro-2-fluorobenzyl)oxy)pyridin-2-yl)piperidin-1-yl)methyl)-1-methyl-1H-imidazol-5-yl)isoxazol-3(2H)-one]
